Data published in ChEMBL document CHEMBL5137008, “Recent advances of antitumor shikonin/alkannin derivatives: A comprehensive overview focusing on structural classification, synthetic approaches, and mechanisms of action” (Eur J Med Chem, 2022).

Columns and labels:
SBcl2 = assay: Antitumor activity against human SBcl2 cells assessed as reduction in cell viability incubated for 72 hrs by XTT assay; format: functional, cell-based; settings: SBcl2, 72 h
[1] = Antitumor activity against human WM9 cells assessed as reduction in cell viability incubated for 72 hrs by XTT assay; format: functional, cell-based; settings: WM9, 72 h
WM164 = assay: Antitumor activity against human WM164 cells assessed as reduction in cell viability incubated for 72 hrs by XTT assay; format: functional, cell-based; settings: WM164, 72 h
MUGMel2 = assay: Antitumor activity against human MUG-Mel2 cells assessed as reduction in cell viability incubated for 72 hrs by XTT assay; format: functional, cell-based; settings: MUGMel2, 72 h
U-87 MG [2] = assay: Anticancer activity against human U87 cells assessed as inhibition of cell proliferation incubated for 48 hrs by MTT assay; format: functional, cell-based, U-87MG ATCC
SMMC-7721 [3] = assay: Anticancer activity against human SMMC-7721 cells assessed as inhibition of cell proliferation incubated for 48 hrs by MTT assay; format: functional, cell-based; settings: SMMC-7721, 48 h
SGC-7901 [4] = assay: Anticancer activity against human SGC-7901 cells assessed as inhibition of cell proliferation incubated for 48 hrs by MTT assay; format: functional, cell-based; settings: SGC-7901, 48 h
MGC-803 [5] = assay: Anticancer activity against human MGC-803 cells assessed as inhibition of cell proliferation incubated for 48 hrs by MTT assay; format: functional, cell-based; settings: MGC-803, 48 h
L1210 [6] = assay: Anticancer activity against mouse L1210 cells assessed as reduction in cell viability for 72 hrs by MTT assay; format: functional; settings: read-out: ED50 (the source's name)
SNU1 = assay: Anticancer activity against human SNU1 cells assessed as reduction in cell viability for 72 hrs by MTT assay; format: functional, cell-based; settings: SNU1, 72 h
L1210 [7] = assay: Anticancer activity against mouse L1210 cells; format: functional; settings: read-out: ED50 (the source's name)
A549 [8] = assay: Anticancer activity against human A549 cells; format: functional; settings: read-out: ED50 (the source's name)
Sarcoma-180 = assay: Antitumor activity against mouse Sarcoma-180 cells xenografted in ip dosed ICR mouse assessed as tumor growth inhibition rate administered daily for 7 days relative to control; format: functional; settings: time 7 day
HeLa = assay: Antiproliferative activity against human HeLa cells assessed as inhibition of cell growth incubated for 24 hrs by MTT assay; format: functional, cell-based
MDA-MB-231 = assay: Antiproliferative activity against human MDA-MB-231 cells assessed as inhibition of cell growth incubated for 24 hrs by MTT assay; format: functional, cell-based; settings: MDA-MB-231, 24 h
A549 [9] = assay: Antiproliferative activity against human A549 cells assessed as inhibition of cell growth incubated for 24 hrs by MTT assay; format: functional, cell-based; settings: A549, 24 h
U-87 MG [10] = assay: Anticancer activity against human U87 cells incubated for 48 hrs by MTT assay; format: functional, cell-based, U-87MG ATCC
SMMC-7721 [11] = assay: Anticancer activity against human SMMC-7721 cells incubated for 48 hrs by MTT assay; format: functional, cell-based; settings: SMMC-7721, 48 h
SGC-7901 [12] = assay: Anticancer activity against human SGC-7901 cells incubated for 48 hrs by MTT assay; format: functional, cell-based; settings: SGC-7901, 48 h
MGC-803 [13] = assay: Anticancer activity against human MGC-803 cells incubated for 48 hrs by MTT assay; format: functional, cell-based; settings: MGC-803, 48 h
[14] = Cytotoxicity against human L02 cells incubated for 48 hrs by MTT assay; format: toxicity, cell-based
HCT-15 = assay: Anticancer activity against human HCT-15 cells incubated for 72 hrs by MTT assay; format: functional, cell-based; settings: HCT-15, 72 h
MCF7 = assay: Anticancer activity against human MCF7 cells incubated for 72 hrs by MTT assay; format: functional, cell-based; settings: MCF7, 72 h
MGC-803 [15] = assay: Anticancer activity against human MGC-803 cells incubated for 72 hrs by MTT assay; format: functional, cell-based; settings: MGC-803, 72 h
Fibroblast = assay: Cytotoxicity against human skin fibroblast cells incubated for 72 hrs by MTT assay; format: functional, cell-based
Ca9-22 [16] = assay: Cytotoxicity against human Ca9-22 cells assessed as reduction in cell viability incubated for 24 hrs by MTT assay; format: functional, cell-based; settings: Ca9-22, 24 h
Ca9-22 [17] = assay: Cytotoxicity against human Ca9-22 cells assessed as reduction in cell viability incubated for 48 hrs by MTT assay; format: functional, cell-based; settings: Ca9-22, 48 h

CC(C)=CC[C@@H](OC(=O)C=C(C)C)C1=CC(=O)c2c(O)ccc(O)c2C1=O [DIMETHYLACRYLSHIKONIN]
IC50 (SBcl2): 1100 nM | IC50 [1]: 2700 nM | IC50 (WM164): 8300 nM | IC50 (MUGMel2): 7200 nM

COc1cccc2c1C(=O)c1c(O)c3c(c(O)c1C2=O)C[C@@](O)(C(=O)CO)C[C@@H]3O[C@H]1C[C@H](N)[C@H](O)[C@H](C)O1.Cl [DOXORUBICIN HYDROCHLORIDE]
IC50 (U-87 MG [2]): 570 nM | IC50 (SMMC-7721 [3]): 460 nM | IC50 (SGC-7901 [4]): 720 nM | IC50 (MGC-803 [5]): 480 nM | EC50 (L1210 [6]): 0.07 µg/mL | IC50 (SNU1): 2010 nM | EC50 (L1210 [7]): 0.016 µg/mL | EC50 (A549 [8]): 1.01 µg/mL | T/C (Sarcoma-180): 315%

COc1cccc2c1C(=O)c1c(O)c3c(c(O)c1C2=O)C[C@@](O)(C(=O)CO)C[C@@H]3O[C@H]1C[C@H](N)[C@H](O)[C@H](C)O1 [DOXORUBICIN]
IC50 (HeLa): 4610 nM | IC50 (MDA-MB-231): 4210 nM | IC50 (A549 [9]): 5130 nM | IC50 (U-87 MG [10]): 570 nM | IC50 (SMMC-7721 [11]): 460 nM | IC50 (SGC-7901 [12]): 720 nM | IC50 (MGC-803 [13]): 480 nM | IC50 at 48 h [14]: > 100000 nM

O=c1[nH]cc(F)c(=O)[nH]1 [FLUOROURACIL]
IC50 (HCT-15): 8240 nM | IC50 (MCF7): 29500 nM | IC50 (MGC-803 [15]): > 50000 nM | IC50 (Fibroblast): > 50000 nM

CC(C)=CC[C@@H](OC(=O)C(C)C)C1=CC(=O)c2c(O)ccc(O)c2C1=O [ISOBUTYLSHIKONIN]
IC50 (Ca9-22 [16]): 1980 nM | IC50 (Ca9-22 [17]): 1800 nM
